Test results reported in patent publication US8741840B2, “BMP-7 for use in treating neointimal hyperplasia” (Washington University, priority 2008, dated 2014).

How the values were obtained:
[1] = tested on: LDLR−/− high fat fed mice; test: Histology of proximal aorta (alizarin red): calcified atherosclerotic plaques; format: in vivo, mouse; conditions: for size of the atherosclerotic lesions: proximal aorta (FIG. 3); for plaque associated calcium deposition: proximal aorta, alizarin red stain (FIG. 3)
From the text: Tissue Preparation: Resected specimens were flash frozen in liquid nitrogen, then divided as follows: the heart, ascending aorta and aortic arch were separated from the descending aorta, and bisected sagittally through the aortic outflow tract. The descending aorta was bisected coronally, approximately halfway along its length. In order to visualize calcification in the tissue sections, Slices (5 μm thick) were cut and stained with von Kossa and Trap staining.
Additional mice were enrolled to the study for qualitative analysis of aortas to quantitate the effects of the treatments, because aortas of the experimental animals were destroyed by the technique of quantifying the aortic calcium content. Vascular calcification was largely aortic atherosclerotic plaque associated (FIG. 3), and punctate calcifications in the tunica media were observed. Panel A: Large lipid laden plaque (between arrows) in proximal aorta of a sham-operated high fat fed LDLR−/− mouse. Thick arrows identify focal calcifications in the base of the plaque. Panel B: A large calcified plaque (between arrows) in the proximal aorta of a CKD high fat fed LDLR−/− mouse. Panel C: A large lipid laden plaque (between arrows) in the proximal aorta of a BMP-7 treated CKD high fat fed LDLR−/− mouse. The stain is alizarin red. Magnification is 400× in A-C.

[2] = Blood tests: serum biochemical parameters in the various groups of animals; format: in vivo, mouse; conditions: serum; LDLR-/-, fat diet, CKD, 28 weeks post natal; BMP-7 10 μg/kg IP weekly or binder 3% in diet
Description: Animals were sacrificed under anesthesia 28 weeks post natal. At the time of sacrifice, blood was taken by intracardiac stab, and the heart and aorta dissected en bloc. The BMP-7 treated group received intraperitoneal injection of BMP-7 10 μg/kg dry weight once weekly in 100 μl vehicle [mannitol (5% w/v), NaAcetate buffer (20 mM, pH 4.0-4.5), sterile water].
Animals were allocated to one of seven CKD high fat fed groups after the second surgery: Other control Groups included LDLR−/− sham operated mice on chow diet, and LDLR−/− mice with CKD on chow diet. C57B16 WT mice fed chow served as the normal benchmark source. […] Group 1 were LDLR−/− mice on the high fat diet sacrificed at 22 weeks. Group 2 were LDLR−/− mice with CKD fed the high fat diet and treated weekly from 22 to 28 weeks with vehicle IP. […] Group 3 was the first treatment group. These were LDLR−/− mice with CKD on high fat diet that received BMP-7 treatment (10 μg/kg IP weekly). Group 4 were LDLR−/− mice with CKD on high fat diet treated with sevelamer CO3 1%. Group 5 were LDLR−/− mice with CKD on high fat diet treated with sevelamer CO3 3%. […] Once the mice were randomized into groups, they were allowed to develop calcification from weeks 14 through weeks 22 post natal. Therapy was initiated at 23 weeks postnatal and continued until week 28 postnatal at which time the mice were examined.
Blood tests: Serum was analyzed on the day of blood draw for blood urea nitrogen [BUN], cholesterol, calcium and phosphate by standard laboratory methods. Before initiation of therapy, blood was obtained through saphenous vein. At the time of sacrifice, blood was obtained through intracardiac stab.

[3] = tested on: human vascular smooth muscle cells (hVSMC) isolated from atherosclerotic donors; test: Phosphorus stimulated matrix mineralization (matrix Ca content) in hVSMC cultures; format: cell-based; conditions: Noggin 10-100 ng/ml added to high phosphorus media (FIG. 6A)
Description: (§1) Cell Culture: Human adult aorta were obtained from seven cadaveric organ donors rejected because of atherosclerosis by Mid-America Transplant Services (St. Louis, Mo.) and enzymatically digested to obtain Human Smooth Muscle Cells (HSMC). Medial tissue was separated from the adventia and intima and digested with collagenase type I (Worthington, Lakewood, N.J.) 2 mg/ml for 1 hr, and washed with Hank's balanced salt solution (HBSS). Further digestion followed with collagenase type II 1 mg/ml (Worthington, Lakewood, N.J.) and elastase 0.25 mg/ml (Worthington, Lakewood, N.J.) for 4 hrs. Cell suspensions were washed twice with HBSS and cultured in T-75 flasks for three weeks in a 95%/5% air/CO2 humidified environment at 37° C. The growth medium used was DMEM containing […] glucose (high glucose), 10% fetal bovine serum (FBS, Atlas, Fort Collins, Colo.), 1 mM sodium pyruvate, 100 units/ml Penicillin and […] Streptomycin (Sigma, St Louis, Mo.). Cell purity was assessed by positive immunostaining for α-smooth muscle actin and calponin and for the absence of von Willebrand factor. In all experimental protocols, cells were seeded at 1×10^5 cells/well in six-well plates. Medium was changed on the first day and every third day thereafter. In all cases, cells used were between passages two and five (Table 3).
Induction of Calcification: At the time of confluence, cells were switched to mineralization medium consisting of DMEM supplemented with 1 or 2 mM Pi. For cells exposed to BMP-7 treatment, fresh mineralization medium containing either vehicle (mannitol, acetic acid, acetate) or BMP-7 in vehicle was added at 0.1, 1.0, 10, or 100 ng/ml. The medium was changed every two or three days. […] Calcium content was quantified and normalized to cellular protein as described. (Jono 2000; Moe S. M. et al., Kidney Int 67:2295-2304, 2005)^11;52
In vitro matrix mineralization. […]

[4] = tested on: hVSMC; test: RT-PCR of osteoblastic differentiation program genes in hVSMC; format: cell-based, human; conditions: Noggin 100 ng/ml, high phosphorus media (FIG. 6B)
Description: as §1
RT-PCR: RNA was extracted from cell cultures using RNeasy Mini Kits (Qiagen, Valencia, Calif.). Semi-quantitative RT-PCR was conducted using Roche 1st Strand cDNA Synthesis Kit (Indianapolis, Ind.) and PCR kit from Invitrogen (Grand Island, N.Y.) according to manufacturer's instructions using a two-step method. 1 μg of total RNA was reverse transcribed and random primers were added for 60 min at 42° C., prior to PCR. Forward and Reverse primers (Table 4) were added and the reactions subjected to PCR for 20-35 cycles. The number of cycles necessary to amplify cDNA but remain within the exponential amplification range was determined for each primer set. GAPDH was used as internal standard to assess loading. Genomic contamination was assessed by heat inactivation of the reverse transcriptase prior to RT-PCR. Primers were designed using Vector NTI soft ware (Invitrogen, Grand Island, N.Y.) and optimal conditions for each prime pairs were determined (Table 4). A Perkin-Elmer DNA Thermal Cycler was used to perform the reaction. Products were separated on a 2% agarose E-gel (Invitrogen, Grand Island, N.Y.), and visualized with ethidium bromide. The band intensity was analyzed first by scanning the gel on a Typhoon 9410 gel imager (Amersham Biosciences), quantified by using TotalLab software v2003.03 (Nonlinear Dynamics, Durham, N.C.) and normalized for loading by comparison to GAPGH. Negative controls were performed by inactivating the reverse transcriptase by boiling for 5 min prior to RT-PCR to insure that genomic DNA was not amplified.
Stimulation of osteoblastic differentiation through osterix induction. […] Osterix (E) was only weakly expressed in basal culture conditions. Phosphorus stimulated transcription of osterix (E). […] The data in A-E were normalized to the expression level in basal culture conditions and expressed as fold induction, mean±SEM, n=3. In: Principles of Bone Biology, edited by Bilezikian J P et al., New York, Academic Press, 1996, pp 51-67; Hoffmann H M et al., Proc. Nat. […]

| Molecule | size of the atherosclerotic lesions [1] | plaque associated calcium deposition [1] | Phosphorus [2] | matrix mineralization stimulated by phosphorus [3] | phosphorus induced osterix expression [4] |
| --- | --- | --- | --- | --- | --- |
| O=C([O-])[O-].[Ca+2] [CaCO3] | did not decrease the size of the atherosclerotic lesions | diminished plaque associated calcium deposition |  |  |  |
| O=C([O-])[O-].O=C([O-])[O-].O=C([O-])[O-].[La+3].[La+3] [Lanthanum, LaCO3] | did not decrease the size of the atherosclerotic lesions | diminished plaque associated calcium deposition | 9.7 ± .4 mg/dL |  |  |
| Noggin: bone morphogenetic protein specific inhibitor (BMP-2 antagonist), from Pepro Tech. (protein, UniProt Q13253 28-232, looked up) Noggin: QHYLHIRPAPSDNLPLVDLIEHPDPIFDPKEKDLNETLLRSLLGGHYDPGFMATSPPEDRPGGGGGAAGGAEDLAELDQLLRQRPSGAMPSEIKGLEFSEGLAQGKKQRLSKKLRRKLQMWLWSQTFCPVLYAWNDLGSRFWPRYVKVGSCFSKRSCSVPEGMVCKPSKSVHLTVLRWRCQRRGGQRCGWIPIQYPIISECKCSC |  |  |  | inhibited matrix mineralization stimulated by phosphorus | blocked phosphorus induced osterix expression |
